Results taken from ChEMBL document CHEMBL4118154, “Discovery of evocalcet, a next-generation calcium-sensing receptor agonist for the treatment of hyperparathyroidism” (Bioorg Med Chem Lett, 2018).
Counter-ions that a name gives are not always drawn.

Columns and labels:
CYP2D6 [1] = target: T1, CYP2D6 (Homo sapiens, UniProt P10635); test: Inhibition of CYP2D6 (unknown origin) at 10 uM relative to control; format: ADME
CYP2D6 [2] = target: T1, CYP2D6; test: Inhibition of CYP2D6 (unknown origin) at 1 uM relative to control; format: ADME
[3] = Intrinsic clearance in human liver microsomes assessed per protein; format: ADME, microsome; details: read-out: CLH
CYP2D6 [4] = target: T1, CYP2D6; test: Inhibition of CYP2D6 (unknown origin) at 0.1 uM relative to control; format: ADME
[5] = target: T2, Extracellular calcium-sensing receptor (Rattus norvegicus, UniProt P48442); test: Agonist activity at CaSR in rat parathyroid cells assessed as inhibition of PTH (1 to 84 residues) production in presence of Cacl2 by ELISA; format: functional, cell-based
T2 sequence (P48442 whole entry): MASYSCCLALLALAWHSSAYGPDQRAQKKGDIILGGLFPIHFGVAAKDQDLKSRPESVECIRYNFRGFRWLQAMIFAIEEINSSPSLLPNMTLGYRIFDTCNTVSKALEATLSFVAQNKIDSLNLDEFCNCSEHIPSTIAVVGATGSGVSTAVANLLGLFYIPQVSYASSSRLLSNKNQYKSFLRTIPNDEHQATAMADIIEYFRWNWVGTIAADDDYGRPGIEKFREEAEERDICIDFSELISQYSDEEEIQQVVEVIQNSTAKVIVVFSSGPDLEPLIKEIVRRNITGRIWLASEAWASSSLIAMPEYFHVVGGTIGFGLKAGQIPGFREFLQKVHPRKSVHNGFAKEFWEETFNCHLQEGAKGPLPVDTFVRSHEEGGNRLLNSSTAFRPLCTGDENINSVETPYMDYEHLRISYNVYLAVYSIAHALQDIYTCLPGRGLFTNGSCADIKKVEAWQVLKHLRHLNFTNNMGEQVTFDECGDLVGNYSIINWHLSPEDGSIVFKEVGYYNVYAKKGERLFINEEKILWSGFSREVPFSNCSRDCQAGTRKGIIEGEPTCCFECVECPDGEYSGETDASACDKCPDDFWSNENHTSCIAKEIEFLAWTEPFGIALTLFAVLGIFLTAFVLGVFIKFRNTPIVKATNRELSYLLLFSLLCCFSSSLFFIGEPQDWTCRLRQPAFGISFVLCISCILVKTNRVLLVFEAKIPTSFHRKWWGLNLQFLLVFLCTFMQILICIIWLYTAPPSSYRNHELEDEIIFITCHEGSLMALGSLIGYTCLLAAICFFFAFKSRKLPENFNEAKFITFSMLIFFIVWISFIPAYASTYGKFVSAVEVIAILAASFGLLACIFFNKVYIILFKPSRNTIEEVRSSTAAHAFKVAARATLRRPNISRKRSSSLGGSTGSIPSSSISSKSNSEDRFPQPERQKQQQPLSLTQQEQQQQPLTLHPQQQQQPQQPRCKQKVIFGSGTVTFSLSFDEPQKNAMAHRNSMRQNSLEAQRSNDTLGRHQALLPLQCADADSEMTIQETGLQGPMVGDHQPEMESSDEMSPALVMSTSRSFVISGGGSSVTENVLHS

[6] = target: T3, Extracellular calcium-sensing receptor (Homo sapiens, UniProt P41180); test: Agonist activity at human CaSR expressed in CHO cells assessed as increase in intracellular calcium mobilization after 1 hr by Fura-2 dye-based fluorescence assay; format: functional, cell-based
T3 sequence (P41180 whole entry): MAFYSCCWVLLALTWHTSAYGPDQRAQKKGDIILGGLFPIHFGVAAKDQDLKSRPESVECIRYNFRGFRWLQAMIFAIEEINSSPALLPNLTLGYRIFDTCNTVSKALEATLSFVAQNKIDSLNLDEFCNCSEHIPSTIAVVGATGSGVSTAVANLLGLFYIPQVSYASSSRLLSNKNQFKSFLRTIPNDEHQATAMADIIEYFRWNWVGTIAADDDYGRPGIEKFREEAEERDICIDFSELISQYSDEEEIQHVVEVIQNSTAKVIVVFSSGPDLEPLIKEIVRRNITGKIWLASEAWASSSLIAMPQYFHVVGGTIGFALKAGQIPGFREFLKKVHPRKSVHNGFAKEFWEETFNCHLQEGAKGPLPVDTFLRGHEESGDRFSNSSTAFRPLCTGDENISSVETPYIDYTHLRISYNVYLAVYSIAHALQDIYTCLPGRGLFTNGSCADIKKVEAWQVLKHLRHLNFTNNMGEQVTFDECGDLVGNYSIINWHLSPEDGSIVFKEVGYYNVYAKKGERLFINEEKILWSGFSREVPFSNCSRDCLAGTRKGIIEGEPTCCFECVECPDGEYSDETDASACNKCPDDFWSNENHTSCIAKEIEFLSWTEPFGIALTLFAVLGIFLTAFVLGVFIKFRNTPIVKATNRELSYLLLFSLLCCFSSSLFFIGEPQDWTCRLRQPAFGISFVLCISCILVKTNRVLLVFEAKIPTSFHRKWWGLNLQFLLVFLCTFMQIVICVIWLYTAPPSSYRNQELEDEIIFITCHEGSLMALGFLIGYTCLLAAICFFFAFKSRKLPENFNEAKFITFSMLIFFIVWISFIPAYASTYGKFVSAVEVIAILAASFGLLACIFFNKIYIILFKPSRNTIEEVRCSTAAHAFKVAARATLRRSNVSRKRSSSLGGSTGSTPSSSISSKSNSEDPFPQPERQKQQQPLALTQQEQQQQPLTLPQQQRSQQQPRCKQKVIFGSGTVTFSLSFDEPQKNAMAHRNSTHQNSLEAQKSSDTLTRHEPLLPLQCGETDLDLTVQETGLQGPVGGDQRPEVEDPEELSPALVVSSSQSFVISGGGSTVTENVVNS

[7] = Intrinsic clearance in rat liver microsomes assessed per protein; format: ADME, microsome; details: read-out: CLH
Cytochrome P450 2D6 = Cytochrome P450 2D6 (Homo sapiens, UniProt P10635); test: Inhibition of recombinant human CYP2D6 expressed in bacterial membranes using AMMC as substrate preincubated for 10 mins followed by NADPH addition measured after 30 mins by fluorescence assay; format: ADME, cell membranes
Sequence of Cytochrome P450 2D6 (P10635 whole entry): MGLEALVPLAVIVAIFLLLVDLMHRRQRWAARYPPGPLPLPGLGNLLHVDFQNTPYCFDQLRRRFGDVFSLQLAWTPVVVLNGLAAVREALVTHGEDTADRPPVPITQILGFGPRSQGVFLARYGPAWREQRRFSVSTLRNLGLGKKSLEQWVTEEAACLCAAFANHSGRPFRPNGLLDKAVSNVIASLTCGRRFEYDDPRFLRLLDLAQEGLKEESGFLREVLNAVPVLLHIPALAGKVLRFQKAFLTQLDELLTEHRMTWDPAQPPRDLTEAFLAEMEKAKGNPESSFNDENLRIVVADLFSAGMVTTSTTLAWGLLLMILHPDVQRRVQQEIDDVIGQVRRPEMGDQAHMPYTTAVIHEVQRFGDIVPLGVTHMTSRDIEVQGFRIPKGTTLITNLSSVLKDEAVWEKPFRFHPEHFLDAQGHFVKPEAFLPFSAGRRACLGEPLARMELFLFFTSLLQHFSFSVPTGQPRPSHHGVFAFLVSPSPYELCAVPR

T1 sequence (P10635 whole entry): as above

Structure (SMILES)	inhibition at 10 µM (CYP2D6 [1]) [%]	inhibition at 1 µM (CYP2D6 [2]) [%]	microsomal CLint [3] [µL/min/mg]	inhibition at 0.1 µM (CYP2D6 [4]) [%]	IC50 [5] [nM]	EC50 [6] [nM]	microsomal CLint [7] [µL/min/mg]	IC50 (Cytochrome P450 2D6) [nM]
C[C@@H](N[C@@H]1CCCN(c2cccc(C(F)(F)F)c2)C1)c1cccc2ccccc12	87.6	78.7	662	54.8	2.1	380	610	
C[C@@H](N[C@@H]1CCN(c2cccc(C(F)(F)F)c2)C1)c1cccc2ccccc12		60	421	3	9.7	430	302	
C[C@@H](N[C@H]1CCCN(c2ccc(C(=O)O)cc2)C1)c1cccc2ccccc12					> 100	1100		
C[C@@H](N[C@@H]1CCN(c2cccc(OC(F)(F)F)c2)C1)c1cccc2ccccc12		61.2	206	15.8	4.3	320	270	
C[C@@H](N[C@H]1CCN(c2cccc(C(F)(F)F)c2)C1)c1cccc2ccccc12		87.5	171	85.1	13.1	450	370	
C[C@@H](N[C@@H]1CCN(c2ccc(C(=O)O)cc2)C1)c1cccc2ccccc12						8800		
C[C@@H](N[C@H]1CCCN(c2cccc(OC(F)(F)F)c2)C1)c1cccc2ccccc12	92.5	86.4	225	79	31.8	600	442	
C[C@@H](N[C@H]1CCN(c2cccc(OC(F)(F)F)c2)C1)c1cccc2ccccc12		88.4	84	85.9	11.7	600	176	
C[C@@H](N[C@H]1CCN(c2ccc(C(=O)O)cc2)C1)c1cccc2ccccc12	14.1	14.1	97	0	8		92	
C[C@@H](N[C@@H]1CCN(c2ccc(OC(F)(F)F)cc2)C1)c1cccc2ccccc12					116	230		

The next lines start with the values.

inhibition at 10 µM (CYP2D6 [1]) [%]	inhibition at 1 µM (CYP2D6 [2]) [%]	microsomal CLint [3] [µL/min/mg]	inhibition at 0.1 µM (CYP2D6 [4]) [%]	IC50 [5] [nM]	EC50 [6] [nM]	microsomal CLint [7] [µL/min/mg]	IC50 (Cytochrome P450 2D6) [nM]	Structure (SMILES)
79.8	62.5		15.8	7.8	120			C[C@@H](N[C@H]1CCN(c2ccc(OC(F)(F)F)cc2)C1)c1cccc2ccccc12
30.7	3.4	197	4.4	0.91	50	667		C[C@@H](N[C@H]1CCN(c2ccc(C(=O)NCCO)cc2)C1)c1cccc2ccccc12
75.3		312		0.47	17	42		C[C@@H](N[C@H]1CCN(c2ccc(-c3nn[nH]n3)cc2)C1)c1cccc2ccccc12
					180		< 100	C[C@@H](NCCCc1cccc(C(F)(F)F)c1)c1cccc2ccccc12 [CINACALCET HYDROCHLORIDE]
85.2	82.6	370	54	1.4	190	231		C[C@@H](N[C@@H]1CCCN(c2cccc(OC(F)(F)F)c2)C1)c1cccc2ccccc12
